Reference: patent US9775904B2 (priority 2014, dated 2017)
Read-outs that look alike come from different tables or passages of the source.

What was measured:
[1] = Chronic effect on body weight and body fat in female DIO C57BL/6 mice, 4 weeks; type: in vivo; settings: for Day on which significant body weight decrease begins / Daily body weight compared to vehicle DIO control mice: 4 weeks; for Day on which significant body weight decrease begins: continuing through the end of the study; for Body fat change / Overall weight change: DIO mice, 4-week treatment, mean ± SEM; for Body fat change: NMR
Experimental: (§1) C57BL/6 Harlan mice are housed in groups in a specific pathogen-free barrier facility on a 12 h light/dark cycle with free access to water and standard or high-fat diet. After prefeeding on high-fat diet, mice are stratified to treatment groups (n=8), so that each group has similar mean body weight. An age-matched group with ad-libitum access to standard chow is included as standard control group. Before the experiment, mice are subcutaneously (s.c.) injected with vehicle solution and weighed for 3 days to acclimate them to the procedures.
2) Chronic effect on body weight in female DIO mice: mice are treated once (s.c. in evening hours) or twice daily (s.c. in the morning and in the evening), respectively, at the beginning and the end of the light phase with either vehicle or exendin-4 derivatives for 4 weeks. Body weight is recorded daily. Two days before start of treatment and on day 26, total fat mass is measured by nuclear magnetic resonance (NMR).
(§2) Statistical analyses are performed with Everstat 6.0 by repeated measures two-way ANOVA and Dunnetts post-hoc analyses (glucose profile) and 1-way-ANOVA, followed by Dunnetts post-hoc test (body weight, body fat). Differences versus vehicle-treated DIO control mice are considered statistically significant at the p<0.05 level.
Body weight was recorded daily, and body fat content was determined before the start and after 4 weeks of treatment. […] These changes resulted from a decrease in body fat, as shown by the absolute changes in body fat content (Table 10, FIG. 3).
Body weight was recorded daily, and body fat content was determined before the start and after 4 weeks of treatment.

[2] = biological target: T1, human glucagon receptor (hGlucagon R) (Homo sapiens, UniProt P47871); experiment: cAMP response of HEK-293 cells expressing human glucagon receptor (HTRF); type: cell-based
T1 construct: expressed in transfected cells
Experimental: (§3) cAMP content of cells was determined using a kit from Cisbio Corp. (cat. no. 62AM4PEC) based on HTRF (Homogenous Time Resolved Fluorescence). For preparation, cells were split into T175 culture flasks and grown overnight to near confluency in medium (DMEM/10% FBS). Medium was then removed and cells washed with PBS lacking calcium and magnesium, followed by proteinase treatment with accutase (Sigma-Aldrich cat. no. A6964). Detached cells were washed and resuspended in assay buffer (1×HBSS; 20 mM HEPES, 0.1% BSA, 2 mM IBMX) and cellular density determined. They were then diluted to 400000 cells/ml and 25 μl-aliquots dispensed into the wells of 96-well plates. For measurement, 25 μl of test compound in assay buffer was added to the wells, followed by incubation for 30 minutes at room temperature.

[3] = biological target: T2, human GIP receptor (hGIP-R) (Homo sapiens, UniProt P48546); experiment: cAMP response of HEK-293 cells expressing human GIP receptor (HTRF); type: cell-based
T2 construct: expressed in transfected cells
T2 sequence (P48546 22-466): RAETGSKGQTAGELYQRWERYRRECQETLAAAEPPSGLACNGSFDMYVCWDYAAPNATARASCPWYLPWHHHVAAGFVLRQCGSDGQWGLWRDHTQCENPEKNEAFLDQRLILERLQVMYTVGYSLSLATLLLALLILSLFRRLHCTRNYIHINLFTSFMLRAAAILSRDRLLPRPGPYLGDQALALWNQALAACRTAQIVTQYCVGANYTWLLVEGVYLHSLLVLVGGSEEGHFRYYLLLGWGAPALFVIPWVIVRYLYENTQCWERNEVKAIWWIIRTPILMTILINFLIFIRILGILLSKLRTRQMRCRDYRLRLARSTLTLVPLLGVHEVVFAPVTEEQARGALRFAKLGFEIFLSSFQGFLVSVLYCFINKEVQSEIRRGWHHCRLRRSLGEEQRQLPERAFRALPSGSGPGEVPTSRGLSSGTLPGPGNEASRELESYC
Experimental: as §3

[4] = Pharmacokinetic testing in mice, s.c.; type: in vivo; settings: mouse, plasma, sc, 1 mg/kg s.c.
Experimental: (§4) Mice were dosed 1 mg/kg subcutaneously (s.c.). The mice were sacrified and blood samples were collected after 0.25, 0.5, 1, 2, 4, 8, 16 and 24 hours post application. Plasma samples were analyzed after protein precipitation via liquid chromatography mass spectrometry (LC/MS). PK parameters and half-life were calculated using WinonLin Version 5.2.1 (non-compartment model).

[5] = biological target: T3, human GLP-1 receptor (hGLP-1 R) (Homo sapiens, UniProt P43220); experiment: cAMP response of HEK-293 cells expressing human GLP-1 receptor (HTRF); type: cell-based; settings: Table 6
T3 construct: expressed in transfected cells
Experimental: as §3

[6] = Pharmacokinetic testing in Göttinger minipigs, s.c.; type: in vivo; settings: female, minipig, plasma, sc, Mini pigs, 0.1 mg/kg s.c.
Experimental: as §4, with “Female Göttinger minipigs were” for “Mice were”, “dosed 0.1” for “dosed 1”, “(s.c.). Blood” for “(s.c.). The mice were sacrified and blood”, “8, 24, 32, 48, 56” for “8, 16”, “and 72” for “and 24”

[7] = Solubility testing in buffer (HPLC-UV); type: physicochemical
Experimental: Prior to the testing of solubility and stability of a peptide batch, its purity (HPLC-UV) was determined.
. Therefore, solutions from solid samples were prepared in different buffer systems with a concentration of 10 mg/mL compound based on the previously determined % purity. HPLC-UV was performed after 2 h of gentle agitation from the supernatant, which was obtained by 20 min of centrifugation at 4500 rpm.
[…]. This analysis also served as starting point (t0) for the stability testing.

[8] = Acute effect on blood glucose in fed female DIO C57BL/6 mice; type: in vivo; settings: t=1, 2, 3, 4, 6 and 24 h post dosing
Experimental: as §1
1) Acute effect on blood glucose in fed female DIO mice: initial blood samples are taken just before first administration (s.c.) of vehicle (phosphate buffer solution) or the exendin-4 derivatives (dissolved in phosphate buffer), respectively. The volume of administration is 5 mL/kg. The animals have access to water and their corresponding diet during the experiment. Blood glucose levels are measured at t=0 h, t=1 h, t=2 h, t=3 h, t=4 h, t=6 h and t=24 h (method: Accu-Check glucometer). Blood sampling is performed by tail incision without anaesthesia.
as §2
At predefined time points, more blood samples were taken to measure blood glucose and generate the blood glucose profile over 24 h.

[9] = 50 μg/kg bid s.c., p>0.0001 by the end of the study (so in the source)
[10] = pH 4.5, target concentration 10 mg/ml, read-out: solubility [mg/ml] pH 4.5
[11] = pH 7.4, target concentration 10 mg/ml, read-out: solubility [mg/ml] pH 7.4

T1 sequence (P47871 26-477): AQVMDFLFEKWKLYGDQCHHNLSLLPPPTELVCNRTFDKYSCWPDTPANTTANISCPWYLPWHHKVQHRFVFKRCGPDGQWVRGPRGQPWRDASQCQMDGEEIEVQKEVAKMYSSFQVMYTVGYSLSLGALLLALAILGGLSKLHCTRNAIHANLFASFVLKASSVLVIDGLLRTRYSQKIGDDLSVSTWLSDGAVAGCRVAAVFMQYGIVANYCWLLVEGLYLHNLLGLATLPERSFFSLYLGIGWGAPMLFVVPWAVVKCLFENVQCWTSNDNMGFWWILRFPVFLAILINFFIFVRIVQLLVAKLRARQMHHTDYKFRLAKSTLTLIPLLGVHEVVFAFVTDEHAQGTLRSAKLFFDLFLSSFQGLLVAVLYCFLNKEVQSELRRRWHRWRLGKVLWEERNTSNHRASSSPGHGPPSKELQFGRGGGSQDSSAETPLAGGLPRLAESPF
T3 sequence (P43220 24-463): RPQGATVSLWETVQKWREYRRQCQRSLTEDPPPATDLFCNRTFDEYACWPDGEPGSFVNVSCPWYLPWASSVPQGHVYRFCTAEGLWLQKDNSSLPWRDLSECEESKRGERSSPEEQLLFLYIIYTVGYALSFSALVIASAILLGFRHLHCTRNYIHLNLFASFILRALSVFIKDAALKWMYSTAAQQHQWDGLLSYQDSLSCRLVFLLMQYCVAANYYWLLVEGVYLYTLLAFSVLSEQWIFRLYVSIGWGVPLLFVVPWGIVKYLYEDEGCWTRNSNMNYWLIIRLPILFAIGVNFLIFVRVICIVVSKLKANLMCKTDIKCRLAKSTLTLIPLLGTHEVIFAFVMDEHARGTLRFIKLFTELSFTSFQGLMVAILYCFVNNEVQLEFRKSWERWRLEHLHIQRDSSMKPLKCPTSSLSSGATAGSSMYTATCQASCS

CCCCCCCCCCCCCCCC(=O)N[C@@H](CCC(=O)N[C@@H](CCC(=O)NCCCC[C@H](NC(=O)[C@H](CCC(N)=O)NC(=O)[C@H](CCCCN)NC(=O)[C@H](CO)NC(=O)[C@H](CC(C)C)NC(=O)[C@H](CC(=O)O)NC(=O)[C@H](CO)NC(=O)[C@@H](NC(=O)[C@H](Cc1ccccc1)NC(=O)[C@@H](NC(=O)CNC(=O)[C@H](CCC(N)=O)NC(=O)C(C)(C)NC(=O)[C@@H](N)Cc1c[nH]cn1)[C@@H](C)O)[C@@H](C)O)C(=O)N[C@@H](CC(=O)O)C(=O)N[C@@H](CCC(=O)O)C(=O)N[C@@H](CCC(N)=O)C(=O)N[C@@H](CCCNC(=N)N)C(=O)N[C@@H](C)C(=O)N[C@@H](CCCCN)C(=O)N[C@@H](CC(C)C)C(=O)N[C@@H](Cc1ccccc1)C(=O)N[C@H](C(=O)N[C@@H](CCC(=O)O)C(=O)N[C@@H](Cc1c[nH]c2ccccc12)C(=O)N[C@@H](CC(C)C)C(=O)NC(C)(C)C(=O)N[C@@H](C)C(=O)N[C@H](C)C(=O)NCC(=O)N1CCC[C@H]1C(=O)N[C@@H](CO)C(=O)N[C@@H](CO)C(=O)NCC(=O)N[C@@H](C)C(=O)N1CCC[C@H]1C(=O)N1CCC[C@H]1C(=O)N1CCC[C@H]1C(=O)N[C@@H](CO)C(N)=O)[C@@H](C)CC)C(=O)O)C(=O)O [SEQ ID NO: 7, H-Aib-Q-G-T-F-T-S-D-L-S-K-Q-K(γE-γE-x53)-D-E-Q-R-A-K-L-F-I-E-W-L-Aib-A-dAla-G-P-S-S-G-A-P-P-P-S-NH2]
Day on which significant body weight decrease begins ([1]; 50 μg/kg bid s.c.): 7 days | Daily body weight compared to vehicle DIO control mice [1, 9]: statistically significant decrease | Body fat change ([1]; 50 μg/kg bid s.c.): -3.73 ± 0.8 g | Overall weight change ([1]; 50 μg/kg bid s.c.): -5.49 ± 0.9 g | EC50 ([2]; Table 6): 101 pM | EC50 ([3]; Table 6, read-out: EC50 hGIP-R): 7620 pM | Cmax [4]: 5510 ng/mL | half-life [4]: 3.1 h | EC50 [5]: 3.4 pM | Cmax [6]: 667 ng/mL | half-life [6]: 29 h | solubility at 2 h [7, 10]: > 8 mg/mL | solubility at 2 h [7, 11]: > 8 mg/mL | Blood glucose compared to DIO control mice ([8]; 50 μg/kg s.c., p<0.0001): significant decrease in blood glucose

CCCCCCCCCCCCCCCC(=O)N[C@@H](CCC(=O)N[C@@H](CCC(=O)NCCCC[C@H](NC(=O)[C@H](CCC(N)=O)NC(=O)[C@H](CCCCN)NC(=O)[C@H](CO)NC(=O)[C@H](CC(C)C)NC(=O)[C@H](CC(=O)O)NC(=O)[C@H](CO)NC(=O)[C@@H](NC(=O)[C@H](Cc1ccccc1)NC(=O)[C@@H](NC(=O)CNC(=O)[C@H](CCC(N)=O)NC(=O)C(C)(C)NC(=O)[C@@H](N)Cc1c[nH]cn1)[C@@H](C)O)[C@@H](C)O)C(=O)N[C@@H](CC(=O)O)C(=O)N[C@@H](CCC(=O)O)C(=O)N[C@@H](CCC(N)=O)C(=O)N[C@@H](CCCNC(=N)N)C(=O)N[C@@H](C)C(=O)N[C@@H](CCCCN)C(=O)N[C@@H](CC(C)C)C(=O)N[C@@H](Cc1ccccc1)C(=O)N[C@H](C(=O)N[C@@H](CCC(=O)O)C(=O)N[C@@H](Cc1c[nH]c2ccccc12)C(=O)N[C@@H](CC(C)C)C(=O)NC(C)(C)C(=O)N[C@@H](C)C(=O)NCC(=O)NCC(=O)N1CCC[C@H]1C(=O)N[C@@H](CO)C(=O)N[C@@H](CO)C(=O)NCC(=O)N[C@@H](C)C(=O)N1CCC[C@H]1C(=O)N1CCC[C@H]1C(=O)N1CCC[C@H]1C(=O)N[C@@H](CO)C(N)=O)[C@@H](C)CC)C(=O)O)C(=O)O [SEQ ID NO: 8, H-Aib-Q-G-T-F-T-S-D-L-S-K-Q-K(γE-γE-x53)-D-E-Q-R-A-K-L-F-I-E-W-L-Aib-A-G-G-P-S-S-G-A-P-P-P-S-NH2]
Day on which significant body weight decrease begins ([1]; 50 μg/kg bid s.c.): 5 days | Daily body weight compared to vehicle DIO control mice [1, 9]: reduced body weight significantly | Body fat change ([1]; 50 μg/kg bid s.c.): -3.81 ± 0.6 g | Overall weight change ([1]; 50 μg/kg bid s.c.): -5.38 ± 0.5 g | EC50 ([2]; Table 6): 28.1 pM | EC50 ([3]; Table 6, read-out: EC50 hGIP-R): 2140 pM | Cmax [4]: 4360 ng/mL | half-life [4]: 3.8 h | EC50 [5]: 2.3 pM | Cmax [6]: 476 ng/mL | half-life [6]: 18.1 h | solubility at 2 h [7, 10]: > 8 mg/mL | solubility at 2 h [7, 11]: > 8 mg/mL | Blood glucose compared to DIO control mice ([8]; 50 μg/kg s.c., p<0.0001): significant decrease in blood glucose

CCCCCCCCCCCCCCCC(=O)N[C@@H](CCC(=O)N[C@@H](CCC(=O)NCCCC[C@H](NC(=O)[C@H](CCC(N)=O)NC(=O)[C@H](CCCCN)NC(=O)[C@H](CO)NC(=O)[C@H](CC(C)C)NC(=O)[C@H](CC(=O)O)NC(=O)[C@H](CO)NC(=O)[C@@H](NC(=O)[C@H](Cc1ccccc1)NC(=O)[C@@H](NC(=O)CNC(=O)[C@H](CCC(N)=O)NC(=O)C(C)(C)NC(=O)[C@@H](N)Cc1c[nH]cn1)[C@@H](C)O)[C@@H](C)O)C(=O)N[C@@H](CC(=O)O)C(=O)N[C@@H](CCC(=O)O)C(=O)N[C@@H](CCC(N)=O)C(=O)N[C@@H](CCCNC(=N)N)C(=O)N[C@@H](C)C(=O)N[C@@H](CCCCN)C(=O)N[C@@H](CC(C)C)C(=O)N[C@@H](Cc1ccccc1)C(=O)N[C@H](C(=O)N[C@@H](CCC(=O)O)C(=O)N[C@@H](Cc1c[nH]c2ccccc12)C(=O)N[C@@H](CC(C)C)C(=O)NC(C)(C)C(=O)N[C@@H](CCCCN)C(=O)NCC(=O)NCC(=O)N1CCC[C@H]1C(=O)N[C@@H](CO)C(=O)N[C@@H](CO)C(=O)NCC(=O)N[C@@H](C)C(=O)N1CCC[C@H]1C(=O)N1CCC[C@H]1C(=O)N1CCC[C@H]1C(=O)N[C@@H](CO)C(N)=O)[C@@H](C)CC)C(=O)O)C(=O)O [SEQ ID NO: 15, H-Aib-Q-G-T-F-T-S-D-L-S-K-Q-K(γE-γE-x53)-D-E-Q-R-A-K-L-F-I-E-W-L-Aib-K-G-G-P-S-S-G-A-P-P-P-S-NH2]
Day on which significant body weight decrease begins ([1]; 50 μg/kg qd s.c.): 4 days | Daily body weight compared to vehicle DIO control mice ([1]; 50 μg/kg qd s.c., p>0.001 by the end of the study (so in the source)): statistically significant decrease | Body fat change ([1]; 50 μg/kg qd s.c.): -4.01 ± 0.68 g | Overall weight change ([1]; 50 μg/kg qd s.c.): -4.59 ± 1.1 g | EC50 ([2]; Table 7, comparison of residue in position 14): 394 pM | EC50 ([3]; Table 7, comparison of residue in position 14, read-out: EC50 hGIP-1): 11900 pM | solubility at 2 h [7, 10]: > 8 mg/mL | solubility at 2 h [7, 11]: > 8 mg/mL | Blood glucose compared to DIO control mice ([8]; 50 μg/kg s.c. once daily, p<0.001): significant decrease in blood glucose
